Data on 20 compounds can be found in patent publication US10695348B2, “Sulfonyl pyridyl TRP inhibitors” (Genentech, Inc., priority 2017, dated 2020).

Series [1] can be described thus: Human liver microsome clearance / stability. In kind it is in vitro ADME. The conditions noted are these: for HLM (human liver microsome stability): human liver microsomes, Table 5; for HLM clearance, in words: as compared to compounds 1 and 2. The text has this: Human liver microsome clearance (mL/min/kg) may be measured according to the method described by Ackley et al, “Metabolic Stability Assessed by Liver Microsomes and Hepatocytes”, in “Optimization in Drug Discovery” in the “Methods in Pharmacology and Toxicology” series (ISSN 1557-2153), pp. 151-162 (Yan, Ed., Print ISBN 978-1-58829-332-9, Springer (2004), as well as by using commercially available assay kits by Cerep, Cyprotex, Bd Bioscience and others.
Human liver microsome HLM stability may be measured as using the procedure of Ackley et al. as described above.

Series [2] addresses T1, human TRPA1 (Homo sapiens, UniProt O75762).
T1 construct: expressed in transfected cells; host or cells: CHO cells
Description: Human Ca2+ MAX IC50 calcium assay. The conditions noted are these: for IC50: Table 5, read-out: H Ca2+ MAX (human CA2+ MAX IC50); for affinity on human TRPA1, in words: as compared to compounds 1 and 2. It is filed as cell-based. The text has this: Human Ca2+ MAX IC50 may be measured using one of the commercially available calcium assay kits provided by Molecular Devices, Abcam, Bio-Rad, Biovision, Enzo Lifesciences, Abnova, Sigma-Aldrich, or others.

Series [3] concerns the target T1, human TRPA1. Description: FLIPR Tetra calcium influx assay, CHO cells expressing TRPA1, cinnamaldehyde agonist (hTRPA1 CHO Ca2+ AUC EVO). It is filed as cell-based. The conditions noted are these: CHO cells expressing human TRPA1; 75 uM cinnamaldehyde; Hill coefficient fixed to 1.5; read-out: hTRPA1 IC50 (hTRPA1 CHO Ca2+ AUC EVO (IC50)). Here is the method:
The IC50 ([…]) of compounds on the human and rat TRPA1 channels were determined using a FLIPR Tetra instrument. CHO cells expressing TRPA1 were plated into 384-well plates, incubated overnight at 37° C., and loaded with BD calcium indicator dye for 1 hr at 37° C. followed by 15 minutes at room temperature. The assay buffer was Hank's Balanced Salt Solution (HBSS) containing 20 mM HEPES (pH readjusted to 7.4) along with 0.02% BSA.
Following dye load and plate cool down, compounds were added to the cells using FLIPR Tetra. Plates were then incubated with compounds for 20 minutes at room temperature prior to adding agonist. Following this incubation, about an EC80 concentration of cinnamaldehyde (75 uM for human TRPA1 and 45 uM for rat TRPA1) was added to active the channels and block of cinnamaldehyde induced calcium influx was measured.
The IC50 results were fit with a standard Hill function, keeping the Hill coefficient (n) fixed to 1.5. Fixing the Hill coefficient will generally reduce variability of the IC50 determination. The IC50 results were individually examined to make sure the MIN and MAX points were set correctly prior to validation of the results.

T1 sequence (O75762 whole entry): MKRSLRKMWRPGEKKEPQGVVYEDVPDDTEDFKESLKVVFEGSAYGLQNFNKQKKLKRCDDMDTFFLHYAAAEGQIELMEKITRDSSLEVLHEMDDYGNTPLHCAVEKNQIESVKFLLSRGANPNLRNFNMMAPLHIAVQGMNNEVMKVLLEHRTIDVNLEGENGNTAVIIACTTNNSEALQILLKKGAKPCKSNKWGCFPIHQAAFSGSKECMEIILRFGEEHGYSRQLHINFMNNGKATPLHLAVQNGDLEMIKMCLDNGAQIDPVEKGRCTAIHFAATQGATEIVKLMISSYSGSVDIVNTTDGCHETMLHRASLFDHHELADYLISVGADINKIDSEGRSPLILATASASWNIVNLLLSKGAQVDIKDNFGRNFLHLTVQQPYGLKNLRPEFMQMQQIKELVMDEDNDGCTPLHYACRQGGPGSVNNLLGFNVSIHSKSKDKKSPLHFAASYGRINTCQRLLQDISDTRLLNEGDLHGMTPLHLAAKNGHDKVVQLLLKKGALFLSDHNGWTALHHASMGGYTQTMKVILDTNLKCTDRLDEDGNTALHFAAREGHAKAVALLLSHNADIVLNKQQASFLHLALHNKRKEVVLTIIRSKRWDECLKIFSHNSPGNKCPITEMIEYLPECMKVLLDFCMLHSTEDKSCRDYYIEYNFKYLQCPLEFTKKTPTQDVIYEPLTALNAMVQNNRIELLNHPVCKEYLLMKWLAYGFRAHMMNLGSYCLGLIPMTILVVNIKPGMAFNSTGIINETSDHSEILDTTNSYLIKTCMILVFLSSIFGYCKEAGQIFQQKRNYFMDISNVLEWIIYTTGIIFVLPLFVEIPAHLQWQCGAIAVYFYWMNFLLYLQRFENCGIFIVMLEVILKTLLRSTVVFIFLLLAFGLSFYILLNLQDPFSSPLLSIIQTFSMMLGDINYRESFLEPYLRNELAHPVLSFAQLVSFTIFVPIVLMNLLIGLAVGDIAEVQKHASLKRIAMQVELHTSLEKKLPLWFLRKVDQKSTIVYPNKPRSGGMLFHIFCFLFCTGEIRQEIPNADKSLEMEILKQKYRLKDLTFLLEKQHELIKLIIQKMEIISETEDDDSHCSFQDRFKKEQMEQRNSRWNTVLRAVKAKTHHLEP

As for `C[C@H]1[C@H](F)C[C@@H](C(=O)NCc2cc(-c3cnc(C(F)(F)F)nc3)ncc2C(F)(F)F)N1S(=O)(=O)c1ccc(F)cn1` (single isomer, unassigned) [Compound 1], the “HLM (human liver microsome stability)” value in series [1] was determined as 4.1 mL/min/kg. Moreover, the IC50 on human TRPA1 [2] amounted to 8 nM.

Take `C[C@H]1[C@H](F)C[C@@H](C(=O)NCc2cc(-c3cnc(C(F)(F)F)nc3)ncc2C(F)(F)F)N1S(=O)(=O)c1ccc(Cl)cn1` [Compound 2]: the “HLM (human liver microsome stability)” value in series [1] was found to be 6.1 mL/min/kg. Also, on human TRPA1 [2], the half-maximal inhibitory concentration (IC50) came to 6 nM.

For the compound `C[C@H]1[C@H](F)C[C@@H](C(=O)NCc2cc(-c3cnc(C(F)(F)F)nc3)ncc2C(F)(F)F)N1S(=O)(=O)c1cncc(F)c1` [Compound 3], in series [1], the “HLM clearance, in words” value was “relatively high HLM clearance” and the “HLM (human liver microsome stability)” value was 19 mL/min/kg. Moreover, the IC50 on human TRPA1 [2] amounted to 21 nM.

With `C[C@H]1[C@H](F)C[C@@H](C(=O)NCc2cc(-c3cnc(C(F)(F)F)nc3)ncc2C(F)(F)F)N1S(=O)(=O)c1ccc(C#N)nc1` [Compound 4], the “HLM (human liver microsome stability)” value in series [1] amounted to 3.7 mL/min/kg. On human TRPA1 [2], the IC50 amounted to 41 nM and the “affinity on human TRPA1, in words” value was “low affinity”.

For `C[C@H]1[C@H](F)C[C@@H](C(=O)NCc2cc(-c3cnc(C(F)(F)F)nc3)ncc2C(F)(F)F)N1S(=O)(=O)c1ccncc1` [Compound 6], in series [1], the “HLM clearance, in words” value is given as “relatively high HLM clearance” and the “HLM (human liver microsome stability)” value is 19 mL/min/kg. Moreover, at human TRPA1 [2], the IC50 stood at 638 nM and the “affinity on human TRPA1, in words” value is “low affinity”.

On to `C[C@H]1[C@H](F)C[C@@H](C(=O)NCc2cc(-c3cnc(C(F)(F)F)nc3)ncc2C(F)(F)F)N1S(=O)(=O)c1ccc(F)cn1` [[1], (2S,4R,5S)-4-fluoro-1-[(5-fluoro-2-pyridyl)sulfonyl]-5-methyl-N-[[5-(trifluoromethyl)-2-[2-(trifluoromethyl)pyrimidin-5-yl]-4-pyridyl]methyl]pyrrolidine-2-carboxamide], for which the IC50 at human TRPA1 [3] was 2.69 nM.

As to `C[C@H]1[C@H](F)C[C@@H](C(=O)NCc2cc(-c3cnc(C(F)(F)F)nc3)ncc2C(F)(F)F)N1S(=O)(=O)c1cccnc1` [[2], (2S,4R,5S)-4-fluoro-5-methyl-1-(3-pyridylsulfonyl)-N-[[5-(trifluoromethyl)-2-[2-(trifluoromethyl)pyrimidin-5-yl]-4-pyridyl]methyl]pyrrolidine-2-carboxamide], at human TRPA1 [3], the IC50 was 32 nM.

For `C[C@H]1[C@H](F)C[C@@H](C(=O)NCc2cc(-c3cnc(C(F)(F)F)nc3)ncc2C(F)(F)F)N1S(=O)(=O)c1cncc(Cl)c1` [[3], (2S,4R,5S)-1-[(5-chloro-3-pyridyl)sulfonyl]-4-fluoro-5-methyl-N-[[5-(trifluoromethyl)-2-[2-(trifluoromethyl)pyrimidin-5-yl]-4-pyridyl]methyl]pyrrolidine-2-carboxamide], the half-inhibitory concentration (IC50) on human TRPA1 [3] stood at 3.09 nM.

With `C[C@H]1[C@H](F)C[C@@H](C(=O)NCc2cc(-c3cnc(C(F)(F)F)nc3)ncc2C(F)(F)F)N1S(=O)(=O)c1cc2c(Cl)nccc2o1` [[4], (2S,4R,5S)-1-(4-chlorofuro[3,2-c]pyridin-2-yl)sulfonyl-4-fluoro-5-methyl-N-[[5-(trifluoromethyl)-2-[2-(trifluoromethyl)pyrimidin-5-yl]-4-pyridyl]methyl]pyrrolidine-2-carboxamide], on human TRPA1 [3], the half-inhibitory concentration (IC50) was found to be 0.634 nM.

Regarding `C[C@H]1[C@H](F)C[C@@H](C(=O)NCc2cc(-c3cnc(C(F)(F)F)nc3)ncc2C(F)(F)F)N1S(=O)(=O)c1cc2cnccc2o1` [[5], (2S,4R,5S)-4-fluoro-1-furo[3,2-c]pyridin-2-ylsulfonyl-5-methyl-N-[[5-(trifluoromethyl)-2-[2-(trifluoromethyl)pyrimidin-5-yl]-4-pyridyl]methyl]pyrrolidine-2-carboxamide], at human TRPA1 [3], the IC50 came out at 1.91 nM.

For `C[C@H]1[C@H](F)C[C@@H](C(=O)NCc2cc(-c3cnc(C(F)(F)F)nc3)ncc2C(F)(F)F)N1S(=O)(=O)c1ccc(Cl)cn1` [[6], (2S,4R,5S)-1-[(5-chloro-2-pyridyl)sulfonyl]-4-fluoro-5-methyl-N-[[5-(trifluoromethyl)-2-[2-(trifluoromethyl)pyrimidin-5-yl]-4-pyridyl]methyl]pyrrolidine-2-carboxamide], the IC50 at human TRPA1 [3] is 2.16 nM.

Turning to `C[C@H]1[C@H](F)C[C@@H](C(=O)NCc2cc(-c3cnc(C(F)(F)F)nc3)ncc2C(F)(F)F)N1S(=O)(=O)c1ncccc1F` [[7], (2S,4R,5S)-4-fluoro-1-[(3-fluoro-2-pyridyl)sulfonyl]-5-methyl-N-[[5-(trifluoromethyl)-2-[2-(trifluoromethyl)pyrimidin-5-yl]-4-pyridyl]methyl]pyrrolidine-2-carboxamide], on human TRPA1 [3], the IC50 stood at 633 nM.

Turning to `C[C@H]1[C@H](F)C[C@@H](C(=O)NCc2cc(-c3cnc(C(F)(F)F)nc3)ncc2C(F)(F)F)N1S(=O)(=O)c1ccc(C#N)cn1` [[8], (2S,4R,5S)-1-(5-cyanopyridin-2-ylsulfonyl)-4-fluoro-5-methyl-N-((5-(trifluoromethyl)-2-(2-(trifluoromethyl)pyrimidin-5-yl)pyridin-4-yl)methyl)pyrrolidine-2-carboxamide], the IC50 at human TRPA1 [3] was 73.5 nM.

For the compound `C[C@H]1[C@H](F)C[C@@H](C(=O)NCc2cc(-c3cnc(C(F)(F)F)nc3)ncc2Cl)N1S(=O)(=O)c1ccc(F)cn1` [[9], (2S,4R,5S)—N-((5-chloro-2-(2-(trifluoromethyl)pyrimidin-5-yl)pyridin-4-yl)methyl)-4-fluoro-1-(5-fluoropyridin-2-ylsulfonyl)-5-methylpyrrolidine-2-carboxamide], at human TRPA1 [3], the concentration for half-maximal inhibition (IC50) was determined as 16.7 nM.

On to `C[C@H]1[C@H](F)C[C@@H](C(=O)NCc2cc(-c3cnc(C(F)(F)F)nc3)ccc2C#N)N1S(=O)(=O)c1ccc(F)cn1` [[10], (2S,4R,5S)—N-(2-cyano-5-(2-(trifluoromethyl)pyrimidin-5-yl)benzyl)-4-fluoro-1-(5-fluoropyridin-2-ylsulfonyl)-5-methylpyrrolidine-2-carboxamide], for which the IC50 on human TRPA1 [3] is 66.9 nM.

For the compound `C[C@H]1[C@H](F)C[C@@H](C(=O)NCc2cc(-c3cnc(C(F)(F)F)nc3)ncc2OC(F)(F)F)N1S(=O)(=O)c1ccc(F)cn1` [[11], (2S,4R,5S)-4-fluoro-1-(5-fluoropyridin-2-ylsulfonyl)-5-methyl-N-((5-(trifluoromethoxy)-2-(2-(trifluoromethyl)pyrimidin-5-yl)pyridin-4-yl)methyl)pyrrolidine-2-carboxamide], at human TRPA1 [3], the IC50 was determined as 6.73 nM.

As for `C[C@H]1[C@H](F)C[C@@H](C(=O)NCc2cc(-c3cnc(C(F)(F)F)nc3)ncc2F)N1S(=O)(=O)c1ccc(F)cn1` [[12], (2S,4R,5S)-4-fluoro-N-((5-fluoro-2-(2-(trifluoromethyl)pyrimidin-5-yl)pyridin-4-yl)methyl)-1-(5-fluoropyridin-2-ylsulfonyl)-5-methylpyrrolidine-2-carboxamide], the IC50 at human TRPA1 [3] was found to be 103 nM.

Turning to `C[C@H]1[C@H](F)C[C@@H](C(=O)NCc2cc(-c3cnc(C(F)(F)F)nc3)ncc2C#N)N1S(=O)(=O)c1ccc(F)cn1` [[13], (2S,4R,5S)—N-((5-cyano-2-(2-(trifluoromethyl)pyrimidin-5-yl)pyridin-4-yl)methyl)-4-fluoro-1-(5-fluoropyridin-2-ylsulfonyl)-5-methylpyrrolidine-2-carboxamide], the IC50 on human TRPA1 [3] amounted to 89.8 nM.

In the case of `C[C@H]1[C@H](F)C[C@@H](C(=O)NCc2cc(-c3cnc(C(F)(F)F)nc3)cnc2C(F)F)N1S(=O)(=O)c1ccc(F)cn1` [[14], (2S,4R,5S)—N-((2-(difluoromethyl)-5-(2-(trifluoromethyl)pyrimidin-5-yl)pyridin-3-yl)methyl)-4-fluoro-1-(5-fluoropyridin-2-ylsulfonyl)-5-methylpyrrolidine-2-carboxamide], the IC50 on human TRPA1 [3] was 75.1 nM.

For `C[C@H]1[C@H](F)C[C@@H](C(=O)NCc2cc(-c3cnc(C(F)(F)F)nc3)cnc2C(F)(F)F)N1S(=O)(=O)c1ccc(F)cn1` [[15], (2S,4R,5S)-4-fluoro-1-(5-fluoropyridin-2-ylsulfonyl)-5-methyl-N-((2-(trifluoromethyl)-5-(2-(trifluoromethyl)pyrimidin-5-yl)pyridin-3-yl)methyl)pyrrolidine-2-carboxamide], the IC50 at human TRPA1 [3] is 47.7 nM.
